# Legend:
# [1] = Pharmacokinetics of immediate-release mazindol after oral administration; format: in vivo, human; settings: immediate release formulation; from half-life
# Method: In U.S. Pat. No. 8,293,779, it is disclosed that, after single or repeated oral administration, mazindol is absorbed with a time to maximum concentrations (Tmax) of 2-4 hours.
# Such immediate release compositions thus require twice daily administration, which limits compliance in the special case of children of school age, as the second administration is often requested to be done at midday, i.e. during school time. Even given the fact that the immediate release tablet undergoes complete in vitro dissolution within 1 hour, the time to maximum concentrations (Tmax) occurs at 3-4 hours after drug administration in healthy volunteers (Kim 2009). Rapid initial absorption will allow the earlier achievement of adequate systemic exposure to achieve desired efficacy (e.g., administer early and have onset of efficacy 1-2 hours later, when patient is at school or work).
# [2] = In vitro TIM gastrointestinal system, fasted vs fed; format: in vitro ADME, human; settings: formulated according to the invention
# Source text: As discussed, this is particularly beneficial for ADHD patients, for this initial amount of mazindol provided increases patients' mental alertness and acuity at the start of their day (e.g., driving to work, starting school).
# [3] = cited from earlier work
# [4] = animal toxicology studies; cited from earlier work
# [5] = cited from earlier work; remark: listed apart in the source
# [6] = clinical pharmacokinetic studies; cited from earlier work
compound,measurement,setting,value
"OC1(c2ccc(Cl)cc2)c2ccccc2C2=NCCN21 (centres unmarked) [mazindol, 5-(4-chlorophenyl)-2,5-dihydro-3H-imadazo[2,1-a]isoindol-5-ol]",time to reach steady-state concentrations,[1],30 to 55 h
same,Tmax in the fed state compared to the fasted state,[2],"delayed, compared to the fasted state, by one hour or more"
same,dose dependence of pharmacokinetics,"[3]; doses between 1 mg/day and 4 mg/day, immediate-release formulations",linear (independent of the dose)
same,time to maximum concentrations (Tmax),"[3]; single or repeated oral administration, U.S. Pat. No. 8,293,779",2 to 4 h
same,carcinogenic effect,[4],no carcinogenic effect
same,mutagenic effect,[4],no mutagenic effect
same,toxic potential,[4],very low
same,toxicology effect in reproduction,[4],no toxicology effect in reproduction
same,hydrolytic stability,"[5]; moderate temperatures, water / neutral and alkaline aqueous solutions, human plasma",undergoes hydrolysis at moderate temperatures with minimal amount of water
same,solubility as function of pH,"[5]; most soluble at stomach pH, least in the colon",decreases with increasing pH
same,absorption in the colon,[6],not likely to be absorbed in the colon

# Reference: US11207271B2, “Mazindol IR/SR multilayer tablet and its use for the treatment of attention deficit/hyperactivity disorder (ADHD)” (NLS-1 Pharma AG, priority 2016, dated 2021)
